Assay results reported in patent US20180077929A1, “METHODS AND SYSTEMS FOR TREATING MEDICAL DEVICES AND FLUIDS” (priority 2016, published 2018).
Several values for one entry are separate records, joined by “and”; a condition that tells them apart may be missing. Equal entries are not always repeated.

Columns and labels:
Format in all cases: biochemical
[1] = Detection of LPS after adding CaSt powder to water spiked with LPS (Kinetic Chromogenic Method, Endosafe MCS)
Method: Water and aqueous solutions (containing LPS with various sources of endotoxin) were exposed to calcium stearate [CaSt] […] 5 mL of water solution of known endotoxin concentration (generated by spiking endotoxin-free water with water solution of known endotoxin concentration) was added to the each test tube, vortexed vigorously (1 minute) using Fisher Scientific Digital Vortex Mixer, and then placed in a warm water bath (37° C.) for 1 hour. After 1 hour, the tubes were removed from warm water bath and vortexed vigorously (1 minute). Sterile syringes with needles were used to extract the solution without removing the calcium stearate. This solution was then tested for endotoxin levels. Kinetic Chromogenic Method for Endotoxin Quantitation, using Endosafe MCS Multi Cartridge System by Charles River Laboratories, Charleston S.C.
The total LPS added to test tubes was about 5 EU, with the detected LPS after the treatment was 3% to 8% of the initial concentration.
The total LPS added to test tubes was about 14400 EU, with the detected LPS after the treatment was 0.07%-0.08% of the initial concentration.
The total LPS added to test tubes was about 14400 EU, with the detected LPS after the treatment was CaSt dependent and was a function of the amount of CaSt added. CaSt addition ranged about 100 fold from 0.0027 g to 0.25 g, with the detected LPS after the treatment was ranging from 77% to 0.19% of respectively as a percent of the initial concentration. […] In summary, there are three factors that drive the stearates performance to remove/neutralize endotoxins. These three factors, not necessarily listed in order of importance, are concentration, time of exposure, and energy in solution at the micro level.

[2] = Testing of various sources of LPS with CaSt in water
Method: Therefore, for the methods described above, the activity of endotoxin was tested with various sources of endotoxin. Laboratory grown endotoxin is purified while natural endotoxin will be present with other substances such as proteins and phospholipids.
The laboratory grown endotoxin used in this experiment was supplied by Charles River Laboratories.
Natural airborne endotoxin was captured using an electret filter. Electret filters are produced from dielectric polymer fibers that develop an electrical charge when air flows past them, capturing the endotoxin along with other particles. The endotoxin was extracted from the filter by placing the filter in endotoxin free water for an extended period of time.
Two other natural sources of endotoxin were obtained from water samples in the surrounding environment. One source was a pool of sitting rain water and other being a small puddle on the side of the Raritan River. The sitting rain water (SRW) was purified via chlorination and 0.2 μm filter. The Raritan River Water (RRW) was not altered in anyway. The same testing procedure was conducted for all sources of endotoxin.

[3] = Efficacy of sonicated CaSt suspension stored 1 month
Method: 10 ml of LRW water (LAL reagent water, contains no endotoxin) containing 0.04 g of CaSt suspension was sonicated using Misonix Probe Sonicator, Model: S-4000, Amplitude: 30, Time: 30 seconds and then the suspension was stored for 1 month at ambient temperature. Then 1 ml of the above suspension was added to 10 ml endotoxin containing water SRW and the resulting endotoxin concentrations in the combined solution measured after 15 min and 30 min, with the results presented in Table 14.

[4] = 0.0027 g CaSt in 5 mL water, 14,400 EU spiked
[5] = 0.0108 g CaSt in 5 mL water, 14,400 EU spiked
[6] = 0.0518 g CaSt in 5 mL water, 14,400 EU spiked
[7] = 0.2502 g CaSt in 5 mL water, 14,400 EU spiked
[8] = 0.254-0.2607 g CaSt powder in 5 mL water, 14,400 EU spiked, 0.254 g CaSt powder added
[9] = 0.254-0.2607 g CaSt powder in 5 mL water, 14,400 EU spiked, 0.2607 g CaSt powder added
[10] = Charles River Standard, 8330 EU spiked, 0.05 g Calcium Stearate
[11] = Charles River Standard, 8330 EU spiked, 0.15 g Calcium Stearate
[12] = Charles River Standard, 8330 EU spiked, 0.25 g Calcium Stearate
[13] = Dust Filter Extraction Water, 9280 EU spiked, 0.01 g Calcium Stearate
[14] = Dust Filter Extraction Water, 9280 EU spiked, 0.25 g Calcium Stearate
[15] = RRW endotoxin, 4340 EU spiked, 0.01 g Calcium Stearate
[16] = RRW endotoxin, 4340 EU spiked, 0.1 g Calcium Stearate
[17] = RRW endotoxin, 4340 EU spiked, 0.25 g Calcium Stearate
[18] = SRW endotoxin, 11100 EU spiked, 0.01 g Calcium Stearate

Calcium Stearate
Endotoxin Detected [1, 4]: 11,055 EU | Percent of detected Endotoxin vs. initial concentration [1, 4]: 77% and 76.77% | Endotoxin Detected [1, 5]: 2,925 EU | Percent of detected Endotoxin vs. initial concentration [1, 5]: 20% and 20.31% | Endotoxin Detected [1, 6]: 9.4 EU | Percent of detected Endotoxin vs. initial concentration [1, 6]: 0.07% | Endotoxin Detected [1, 7]: 26.7 EU | Percent of detected Endotoxin vs. initial concentration [1, 7]: 0.19% | Percent of detected Endotoxin vs. initial concentration ([1]; 0.252-0.272 g CaSt powder in 5 mL water, 5.208 EU spiked, 37° C. 1 hour, 0.252 g CaSt powder added): <2.88% | Percent of detected Endotoxin vs. initial concentration ([1]; 0.252-0.272 g CaSt powder in 5 mL water, 5.208 EU spiked, 37° C. 1 hour, 0.258 g CaSt powder added): <8.06% | Percent of detected Endotoxin vs. initial concentration ([1]; 0.252-0.272 g CaSt powder in 5 mL water, 5.208 EU spiked, 37° C. 1 hour, 0.267 g CaSt powder added): <3.46% | Endotoxin Detected [1, 8]: 12.1 EU | Percent of detected Endotoxin vs. initial concentration [1, 8]: 0.08% | Endotoxin Detected [1, 9]: 10.3 EU | Percent of detected Endotoxin vs. initial concentration [1, 9]: 0.07% | percent of endotoxin recovered ([2]; 0.1 grams of calcium stearate and higher, all sources of endotoxin): under 5% | Percent of Endotoxin Detected ([2]; Charles River Standard, 8330 EU spiked, 0.007 g Calcium Stearate): 48.0% | Percent of Endotoxin Detected ([2]; Charles River Standard, 8330 EU spiked, 0.018 g Calcium Stearate): 17.9% | Percent of Endotoxin Detected ([2]; Charles River Standard, 8330 EU spiked, 0.028 g Calcium Stearate): 2.8% | Endotoxin Detected [2, 10]: 190.5 EU | Percent of Endotoxin Detected [2, 10]: 2.3% | Endotoxin Detected [2, 11]: 86.5 EU | Percent of Endotoxin Detected [2, 11]: 1.0% | Endotoxin Detected [2, 12]: 38.5 EU | Percent of Endotoxin Detected [2, 12]: 0.5% | Endotoxin Detected [2, 13]: 3440 EU | Percent of Endotoxin Detected [2, 13]: 37.1% | Endotoxin Detected [2, 14]: 28.5 EU | Percent of Endotoxin Detected [2, 14]: 0.3% | Endotoxin Detected [2, 15]: 960 EU | Percent of Endotoxin Detected [2, 15]: 22.1% | Endotoxin Detected [2, 16]: 165 EU | Percent of Endotoxin Detected [2, 16]: 3.8% | Endotoxin Detected [2, 17]: 70 EU | Percent of Endotoxin Detected [2, 17]: 1.6% | Percent of Endotoxin Detected ([2]; RRW endotoxin, 4340 EU spiked, 0.35 g Calcium Stearate): 2.6% | Endotoxin Detected [2, 18]: 2780 EU | Percent of Endotoxin Detected [2, 18]: 25.0% | Percent of Endotoxin Detected ([2]; SRW endotoxin, 11100 EU spiked, 0.25 g Calcium Stearate): 1.0% | Endotoxin EU/mL (15 min after addition of CaSt suspension) ([3]; 0.04 g CaSt in 10 ml LRW sonicated, stored 1 month, initial endotoxin 732.5 EU/mL, 15 min): 372 EU/mL and 362 EU/mL | Endotoxin EU/mL (30 min after addition of CaSt suspension) ([3]; 0.04 g CaSt in 10 ml LRW sonicated, stored 1 month, initial endotoxin 732.5 EU/mL, 30 min): 384 EU/mL and 278 EU/mL | Percent Endotoxin Removal (15 min) ([3]; sonicated CaSt suspension stored 1 month, 15 min): 49.2% and 50.6% | Percent Endotoxin Removal (30 min) ([3]; sonicated CaSt suspension stored 1 month, 30 min): 47.6% and 62.0%
